From patent US7531194B2, “Plant extracts for the treatment of rheumatoid arthritis” (Development Center for Biotechnology, priority 2006, dated 2009) come the findings set out here.

Holding throughout (type): in vivo, Lewis rats
The nature of assay [1]: Body weight of CIA rats fed PA crude extracts (Embodiment 2). To be noted: gavage from about Day 20 until Day 45, PA-H 375, PA-L 75, indomethacin 2.5 mg/kg/day, FIG. 3. As to the method:
The test animals, Lewis rats, 8 weeks old and about 155-165 g in weight, were all purchased from National Laboratory Animal Center. They were raised in an animal house with a 12-hour light/12-hour dark cycle, a room temperature of 23±1° C., moderate moisture, and good air conditioning, wherein water and feed were provided ad libitum. In addition, during the operation, all the test animals conformed to the criteria of the International Committee on Laboratory Animals' standard regulation. The animal test scheme is shown as FIG. 2. Bovine collagen Type II (Bovine C II) was dissolved in 0.1 M acetic acid solution, stirred to dissolve thoroughly, and formulated into solutions with concentrations of 1.5 and 3 mg/ml, which were stored in 4° C. for later use. For the first immune injection, 100 μl of C II solution was emulsified with an equal amount of CFA, and injected subcutaneously (200 μl/rat) in the root portions of tails of the rats after the emulsification was complete. […] After about 15 days, the second immunization was done. 100 μl of C II solution was emulsified with an equal amount of IFA, and injected subcutaneously (200 μl/rat) in the root portions of tails of the rats after the emulsification was complete. Approximately from Day 20, the symptoms of arthritis were observed (CIA rats), and PA and indomethacin were fed until Day 45. [table] 1. […]

The test system of the next assay is IL-1β. The experiment in a line: Abdominal cavity cell (PEC) culture, cytokine IL-1β, CIA rats fed PA crude extracts (Embodiment 2). To be noted: LPS 10 μg/ml, 24 hours, FIG. 8. As to the method: The animal test scheme is shown as FIG. 2. Bovine collagen Type II (Bovine C II) was dissolved in 0.1 M acetic acid solution, stirred to dissolve thoroughly, and formulated into solutions with concentrations of 1.5 and 3 mg/ml, which were stored in 4° C. for later use. For the first immune injection, 100 μl of C II solution was emulsified with an equal amount of CFA, and injected subcutaneously (200 μl/rat) in the root portions of tails of the rats after the emulsification was complete. […] After about 15 days, the second immunization was done. 100 μl of C II solution was emulsified with an equal amount of IFA, and injected subcutaneously (200 μl/rat) in the root portions of tails of the rats after the emulsification was complete. Approximately from Day 20, the symptoms of arthritis were observed (CIA rats), and PA and indomethacin were fed until Day 45. [table] 1. After carbon dioxide euthanasia, the outer furs of the rat abdominal cavity were cut out by scissors, to expose the whole abdominal cavity. 2. HBSS buffer was injected into the abdominal cavity batch-wise by a 10 ml syringe to make a total volume of about 20 ml/rat. 3. The abdominal cavity of the rat was opened after the abdomen was gently kneaded. An incision of about 2 cm was made in the abdominal cavity by using scissors. […] The concentrations of cytokine TNF-α, IL-6, and IL-1β were analyzed by using ELISA kit.

The next assay deals with C-reactive protein (CRP). The experiment in a line: Serum C-reactive protein (CRP) analysis of CIA rats fed PA crude extracts (Embodiment 2). As to the method:
The animal test scheme is shown as FIG. 2. Bovine collagen Type II (Bovine C II) was dissolved in 0.1 M acetic acid solution, stirred to dissolve thoroughly, and formulated into solutions with concentrations of 1.5 and 3 mg/ml, which were stored in 4° C. for later use. For the first immune injection, 100 μl of C II solution was emulsified with an equal amount of CFA, and injected subcutaneously (200 μl/rat) in the root portions of tails of the rats after the emulsification was complete. […] After about 15 days, the second immunization was done. 100 μl of C II solution was emulsified with an equal amount of IFA, and injected subcutaneously (200 μl/rat) in the root portions of tails of the rats after the emulsification was complete. Approximately from Day 20, the symptoms of arthritis were observed (CIA rats), and PA and indomethacin were fed until Day 45. [table] 1. CRP ELISA kit was a pre-coated microplate, into which 0.1 ml of appropriately diluted serum sample could be added directly. After being reacted for 1 hour at room temperature, it was washed by the washing buffer four times. 2. Rabbit anti-rat C-reactive protein (CRP) was combined with HRP Ab, diluted with the washing buffer 100 times, and then 0.1 ml was added into each well. […] Finally, O.D value was read out at the wavelength of 450 nm. […]

As for `COc1ccc2c(c1)c(CC(=O)O)c(C)n2C(=O)c1ccc(Cl)cc1` [indomethacin, Indomethacin], the “effect on the body weight of CIA rats (weight reduction)” value in assay [1] is reported as “weight reduction is efficiently avoided”. For the same compound, in the assay with IL-1β, the “inhibition of PEC secreting IL-1β” value is recorded as “no effect of inhibiting PEC from secreting inflammatory cytokine”. Besides, the “effect on serum CRP concentration” value with C-reactive protein (CRP) (Day 35, PA-H 375, PA-L 75, indomethacin 2.5 mg/kg/day, FIG. 7) is listed as “efficiently inhibited”; with C-reactive protein (CRP) (Day 45, FIG. 7), “same effects still exist”.
